Counter-ions that a name gives are not always drawn. Like-named read-outs stand apart in the source and are kept apart here.
Key:
[1] = In vitro rat hepatocytes clearance assay; details: male, rat, cryopreserved rat hepatocytes (suspension), rat hepatocytes Clint (µL/min/10^6cells), 1 µM-range incubation up to 100 min
WT EGFR cell line A-431 = test: Cell proliferation, WT EGFR A431 (CellTiter-Glo, 72 h); format: cell-based; details: Homo sapiens, A-431, 72 h;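 also: proliferation from a luminescent ATP viability signal, expressed as 100 × (treated minus time-zero plate) over (DMSO control minus time-zero plate), cells grown with 10% FBS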
[2] = biological target: T1, human Her2 exon 20 insertion mutation YVMA (Homo sapiens, UniProt P04626, INS775YVMA); test: Her2 Exon 20 YVMA insertion cellular phosphorylation inhibition (MSD p-Her2 Y1248/total Her2); format: cell-based; details: Her2 YVMAins cells, 4 h compound;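 also: lentivirally transduced NIH-3T3 cells in 1% FBS medium, electrochemiluminescent MSD read-out, graded compound concentrations at 37 °C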
T1 construct: expressed in transfected cells; host or cells: NIH-3T3, lentiviral transduction, puromycin selection

[3] = In vitro human hepatocytes clearance assay; details: both, human, cryopreserved human hepatocytes (suspension), human hepatocytes Clint (µL/min/10^6cells), mixed gender human hepatocytes, incubation up to 100 min
Ba/F3 EGFR NPH ins cells = test: Cell proliferation, Ba/F3 EGFR NPH ins (CellTiter-Glo, 72 h); format: cell-based; details: Ba/F3 EGFR, 72 h;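 also: IL3-independent cells carrying constitutively phosphorylated EGFR, compound dilution series, viable cells quantified by ATP luminescence, growth relative to DMSO wells after subtracting pre-dosing (day 0) baseline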
OCI-LY-10 cells = test: BTK (wt) cell proliferation, OCI-LY-10 (CellTiter-Glo, 72 h); format: cell-based; details: OCI-LY-10 cells, 72 h, CellTiter-Glo, read-out: BTK WT OCI-LY-10 GI50;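 also: viable cells quantified via cellular ATP luminescence, proliferation given as percent of DMSO control after subtracting a duplicate plate read at time of dosing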
DB cells = test: BTK (wt) cell proliferation, DB (CellTiter-Glo, 72 h); format: cell-based; details: Homo sapiens, DB, DB cells, CellTiter-Glo, read-out: Non-BCR activated DB GI50;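 also: DB cells in 384-well plates given a dilution series of compound, viable cells read by ATP luminescence, growth expressed versus DMSO control after subtracting a time-zero plate reading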
WT EGFR = biological target: T2, WT EGFR (Homo sapiens, UniProt P00533); test: WT EGFR cellular phosphorylation inhibition in A-431 (hEGF stimulated, MSD); format: cell-based; details: A431 cells, 4 h compound, then 100 ng/ml hEGF 10 min;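 also: electrochemiluminescence read-out of EGFR Tyr1068 phosphorylation expressed as ratio to total EGFR, cells kept in medium with 1% FBS, compounds tested as a concentration series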
T2 construct: host or cells: A-431

EGFR L858R&T790M = biological target: T3, EGFR L858R&T790M (Homo sapiens, UniProt P00533, L858R/T790M); test: EGFR L858R and T790M cellular phosphorylation inhibition in NCI-H1975 (MSD); format: cell-based; details: NCI-H1975 cells, 4 h compound, p-EGFR(Y1068)/total EGFR; read-out: EGFR L858R and T790M mutation IC50;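 also: phosphorylated and total EGFR detected by electrochemiluminescence, cells exposed to compound in medium containing 1% FBS at 37 °C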
T3 construct: host or cells: NCI-H1975

[4] = biological target: T4, human EGFR exon 20 V769_D770insASV (Homo sapiens, UniProt P00533, INS769ASV); test: EGFR Exon20 ASV insertion cellular phosphorylation inhibition (MSD pEGFR Y1068/total EGFR); format: cell-based; details: Ba/F3 EGFR ASV ins cells, 4 h compound, p-EGFR(Y1068)/total EGFR;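 also: electrochemiluminescent readout on an MSD SECTOR Imager, IL3-independent transduced cells in medium with 1% FBS, compound concentration series at 37 °C and 5% CO2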
T4 construct: expressed in transfected cells; host or cells: Ba/F3 (DSMZ ACC-300), lentiviral transduction, puromycin selection, IL3 depletion

[5] = test system: NCI-H1975 EGFR L858R/T790M cells; test: Cell proliferation, NCI-H1975 EGFR L858R/T790M (CellTiter-Glo, 72 h); format: cell-based; details: Homo sapiens, NCI-H1975, 72 h;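 also: viable cells quantified by luciferase-based ATP luminescence, proliferation expressed relative to DMSO-treated wells (100%) after subtracting a parallel plate read at the time of dosing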
[6] = test system: Her2 exon 20 insertion YVMA transduced NIH-3T3 cell line; test: Cell proliferation, Her2 YVMAins NIH-3T3 (CellTiter-Glo, 72 h); format: cell-based; details: Mus musculus, NIH3T3, 72 h, Her2 YVMAins cells, 72 h proliferation; read-out: Her2 Exon 20 YVMA insertion GI50;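 also: viable cells quantified by ATP luminescence, growth over a day-zero baseline plate expressed as percent of DMSO control growth, compound dilution series in 10% FBS medium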
Ri-1 cells = test: BTK (wt) cell proliferation, Ri-1 (CellTiter-Glo, 72 h); format: cell-based; details: Ri-1 cells, 72 h, CellTiter-Glo, read-out: BTK WT Ri-1 GI50;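 also: viable cells quantified as cellular ATP luminescence, proliferation normalized to a time-zero plate and the DMSO control, compounds tested across a dilution series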
[7] = biological target: T5, human EGFR exon 20 H773_V774insNPH (Homo sapiens, UniProt P00533, INS773NPH); test: EGFR Exon20 NPH insertion cellular phosphorylation inhibition (MSD pEGFR Y1068/total EGFR); format: cell-based; details: Ba/F3 EGFR NPH ins cells, 4 h compound, p-EGFR(Y1068)/total EGFR;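 also: IL3-independent Ba/F3 cells with constitutively phosphorylated EGFR, compound exposure at 37 °C under 5% CO2, electrochemiluminescent MSD measurement of the p-EGFR to total EGFR ratio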
T5 construct: host or cells: Ba/F3

Ba/F3 EGFR ASV ins cells = test: Cell proliferation, Ba/F3 EGFR ASV ins (CellTiter-Glo, 72 h); format: cell-based; details: Ba/F3 EGFR, 72 h;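 also: IL3-independent Ba/F3 cells transduced with EGFR V769_D770insASV, cellular ATP luminescence after compound exposure, growth relative to DMSO control with the day-0 baseline reading subtracted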
TMD-8 cells = test: BTK (wt) cell proliferation, TMD-8 (CellTiter-Glo, 72 h); format: cell-based; details: TMD-8 cells, 72 h, CellTiter-Glo, read-out: BTK WT TMD-8 GI50;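 also: viable cells quantified by ATP-based luminescence, proliferation expressed as percent of DMSO control after subtracting a time-zero baseline plate read at dosing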
Method: OCI-LY-10 at 3,750 cells/well, TMD-8 and Ri-1 at 2,000 cells/well, and DB at 1,250 cells/well, respectively, were sorted into 384-well plates in RPMI1640 medium with 10% FBS. After overnight incubation, all cells were incubated with compound at a series of concentrations. Meanwhile, a duplicated plate of each cell line was prepared for measuring G0 value. The dosed plates were further incubated for 72 hours and the number of viable cells was measured by CellTiter-Glo® Luminescent Cell Viability Assay (Promega), a luminescent method for determining the number of viable cells through measurement of cellular ATP concentration using Envision plate reader (PerkinElmer). The percentage of proliferation was calculated as: % Proliferation = 100 × (G3 value of sample well - G0 value)/(G3 value of DMSO control - G0 value).

[8] = A431, 72 h proliferation, read-out: EGFR WT A431 GI50
[9] = Ba/F3 EGFR NPH ins, 72 h proliferation, read-out: EGFR Exon20 NPH insertion GI50
[10] = NCI-H1975, 72 h proliferation, read-out: EGFR L858R and T790M mutation GI50
[11] = Ba/F3 EGFR ASV ins, 72 h proliferation, read-out: EGFR Exon20 ASV insertion GI50

T1 sequence (P04626 with tags, fused parts or gaps INS775YVMA): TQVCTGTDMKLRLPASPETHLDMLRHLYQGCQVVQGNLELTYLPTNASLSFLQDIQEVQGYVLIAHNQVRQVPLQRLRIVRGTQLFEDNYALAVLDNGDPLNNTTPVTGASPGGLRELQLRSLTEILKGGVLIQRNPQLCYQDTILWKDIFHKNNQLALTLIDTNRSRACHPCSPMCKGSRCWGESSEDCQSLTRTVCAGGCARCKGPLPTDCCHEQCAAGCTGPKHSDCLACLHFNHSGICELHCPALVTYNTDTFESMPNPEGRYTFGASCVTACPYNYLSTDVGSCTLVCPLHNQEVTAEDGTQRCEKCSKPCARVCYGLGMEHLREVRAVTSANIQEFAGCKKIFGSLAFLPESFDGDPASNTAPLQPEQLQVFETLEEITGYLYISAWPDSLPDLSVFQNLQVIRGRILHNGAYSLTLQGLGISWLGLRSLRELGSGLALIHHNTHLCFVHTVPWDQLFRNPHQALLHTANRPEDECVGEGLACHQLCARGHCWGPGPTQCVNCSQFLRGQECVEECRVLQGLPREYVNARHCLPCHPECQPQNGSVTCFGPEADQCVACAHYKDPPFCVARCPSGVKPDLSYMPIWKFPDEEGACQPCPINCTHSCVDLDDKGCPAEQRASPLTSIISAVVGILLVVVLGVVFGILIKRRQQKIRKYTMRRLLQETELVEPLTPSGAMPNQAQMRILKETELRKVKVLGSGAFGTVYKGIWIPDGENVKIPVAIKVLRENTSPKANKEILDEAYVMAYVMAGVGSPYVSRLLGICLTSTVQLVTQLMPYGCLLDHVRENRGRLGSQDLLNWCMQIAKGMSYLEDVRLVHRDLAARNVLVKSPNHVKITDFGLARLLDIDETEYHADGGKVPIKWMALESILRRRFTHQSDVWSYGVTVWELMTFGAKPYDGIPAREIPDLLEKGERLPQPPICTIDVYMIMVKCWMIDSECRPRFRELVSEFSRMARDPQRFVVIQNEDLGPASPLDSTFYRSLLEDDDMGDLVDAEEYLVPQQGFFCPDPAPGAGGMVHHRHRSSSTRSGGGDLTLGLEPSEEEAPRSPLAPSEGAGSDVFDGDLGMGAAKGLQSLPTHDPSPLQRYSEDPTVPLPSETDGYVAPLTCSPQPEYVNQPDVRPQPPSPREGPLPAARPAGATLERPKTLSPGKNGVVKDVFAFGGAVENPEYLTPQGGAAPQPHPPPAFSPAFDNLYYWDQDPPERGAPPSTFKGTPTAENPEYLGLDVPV
T3 sequence (P00533 25-1210 T790M/L858R): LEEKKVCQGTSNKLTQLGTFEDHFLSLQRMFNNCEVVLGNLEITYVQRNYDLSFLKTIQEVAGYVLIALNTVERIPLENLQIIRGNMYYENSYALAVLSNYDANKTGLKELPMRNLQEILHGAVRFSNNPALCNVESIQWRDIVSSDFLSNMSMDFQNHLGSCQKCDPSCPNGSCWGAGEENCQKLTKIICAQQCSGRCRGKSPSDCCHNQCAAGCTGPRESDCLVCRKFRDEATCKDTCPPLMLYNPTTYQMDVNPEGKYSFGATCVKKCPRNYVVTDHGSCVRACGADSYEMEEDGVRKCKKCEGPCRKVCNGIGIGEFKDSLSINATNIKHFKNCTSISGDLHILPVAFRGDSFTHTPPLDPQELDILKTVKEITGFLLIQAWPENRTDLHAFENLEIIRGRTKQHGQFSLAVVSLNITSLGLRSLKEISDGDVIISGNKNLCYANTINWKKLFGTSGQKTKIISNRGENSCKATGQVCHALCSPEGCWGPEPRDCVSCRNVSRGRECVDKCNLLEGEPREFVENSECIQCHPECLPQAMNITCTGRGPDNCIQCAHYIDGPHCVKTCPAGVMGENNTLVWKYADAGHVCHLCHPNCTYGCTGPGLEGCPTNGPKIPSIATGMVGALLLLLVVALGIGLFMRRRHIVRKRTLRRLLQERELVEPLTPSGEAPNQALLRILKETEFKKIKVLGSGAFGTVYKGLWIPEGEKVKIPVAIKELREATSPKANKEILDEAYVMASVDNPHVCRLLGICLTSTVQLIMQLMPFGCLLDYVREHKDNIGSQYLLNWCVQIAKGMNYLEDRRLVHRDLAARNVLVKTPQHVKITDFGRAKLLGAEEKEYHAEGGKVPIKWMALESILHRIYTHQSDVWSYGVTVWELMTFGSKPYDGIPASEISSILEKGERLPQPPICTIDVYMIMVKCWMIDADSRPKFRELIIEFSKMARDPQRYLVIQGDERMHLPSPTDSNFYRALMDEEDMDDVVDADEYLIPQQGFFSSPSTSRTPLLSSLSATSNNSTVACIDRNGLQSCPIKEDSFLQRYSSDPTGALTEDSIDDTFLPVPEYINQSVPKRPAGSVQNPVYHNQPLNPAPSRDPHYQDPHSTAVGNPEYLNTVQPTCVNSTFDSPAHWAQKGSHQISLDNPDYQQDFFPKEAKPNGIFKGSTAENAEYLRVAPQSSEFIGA
T4 sequence (P00533 with tags, fused parts or gaps INS769ASV): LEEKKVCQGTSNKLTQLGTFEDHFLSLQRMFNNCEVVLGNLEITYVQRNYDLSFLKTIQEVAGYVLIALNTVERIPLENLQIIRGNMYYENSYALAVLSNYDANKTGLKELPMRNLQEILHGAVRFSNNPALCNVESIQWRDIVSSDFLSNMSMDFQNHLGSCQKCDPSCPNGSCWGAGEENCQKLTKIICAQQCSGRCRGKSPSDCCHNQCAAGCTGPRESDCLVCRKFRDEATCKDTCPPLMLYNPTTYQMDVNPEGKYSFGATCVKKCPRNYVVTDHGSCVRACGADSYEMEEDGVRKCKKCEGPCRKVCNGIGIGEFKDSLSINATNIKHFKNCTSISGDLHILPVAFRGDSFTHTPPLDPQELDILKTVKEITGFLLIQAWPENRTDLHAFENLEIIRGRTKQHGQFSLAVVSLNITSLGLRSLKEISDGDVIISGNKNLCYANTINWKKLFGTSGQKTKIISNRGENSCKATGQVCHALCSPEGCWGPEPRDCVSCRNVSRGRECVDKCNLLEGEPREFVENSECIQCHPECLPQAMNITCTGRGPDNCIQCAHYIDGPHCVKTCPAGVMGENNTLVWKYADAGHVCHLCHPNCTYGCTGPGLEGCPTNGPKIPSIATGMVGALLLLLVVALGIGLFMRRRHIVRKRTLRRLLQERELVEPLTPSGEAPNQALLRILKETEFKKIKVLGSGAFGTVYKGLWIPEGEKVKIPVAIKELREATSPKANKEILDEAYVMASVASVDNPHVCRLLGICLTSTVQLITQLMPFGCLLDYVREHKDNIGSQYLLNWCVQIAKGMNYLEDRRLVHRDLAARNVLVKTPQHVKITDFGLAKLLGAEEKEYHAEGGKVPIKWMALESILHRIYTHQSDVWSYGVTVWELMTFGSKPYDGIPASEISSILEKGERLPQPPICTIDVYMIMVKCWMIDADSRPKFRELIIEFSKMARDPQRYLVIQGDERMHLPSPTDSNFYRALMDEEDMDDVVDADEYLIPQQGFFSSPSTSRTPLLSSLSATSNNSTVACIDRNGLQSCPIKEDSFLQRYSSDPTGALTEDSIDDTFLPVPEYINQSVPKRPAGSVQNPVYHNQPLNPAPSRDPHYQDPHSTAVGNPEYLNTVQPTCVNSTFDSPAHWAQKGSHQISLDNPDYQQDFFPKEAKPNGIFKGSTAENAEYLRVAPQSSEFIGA
T2 sequence (P00533 25-1210): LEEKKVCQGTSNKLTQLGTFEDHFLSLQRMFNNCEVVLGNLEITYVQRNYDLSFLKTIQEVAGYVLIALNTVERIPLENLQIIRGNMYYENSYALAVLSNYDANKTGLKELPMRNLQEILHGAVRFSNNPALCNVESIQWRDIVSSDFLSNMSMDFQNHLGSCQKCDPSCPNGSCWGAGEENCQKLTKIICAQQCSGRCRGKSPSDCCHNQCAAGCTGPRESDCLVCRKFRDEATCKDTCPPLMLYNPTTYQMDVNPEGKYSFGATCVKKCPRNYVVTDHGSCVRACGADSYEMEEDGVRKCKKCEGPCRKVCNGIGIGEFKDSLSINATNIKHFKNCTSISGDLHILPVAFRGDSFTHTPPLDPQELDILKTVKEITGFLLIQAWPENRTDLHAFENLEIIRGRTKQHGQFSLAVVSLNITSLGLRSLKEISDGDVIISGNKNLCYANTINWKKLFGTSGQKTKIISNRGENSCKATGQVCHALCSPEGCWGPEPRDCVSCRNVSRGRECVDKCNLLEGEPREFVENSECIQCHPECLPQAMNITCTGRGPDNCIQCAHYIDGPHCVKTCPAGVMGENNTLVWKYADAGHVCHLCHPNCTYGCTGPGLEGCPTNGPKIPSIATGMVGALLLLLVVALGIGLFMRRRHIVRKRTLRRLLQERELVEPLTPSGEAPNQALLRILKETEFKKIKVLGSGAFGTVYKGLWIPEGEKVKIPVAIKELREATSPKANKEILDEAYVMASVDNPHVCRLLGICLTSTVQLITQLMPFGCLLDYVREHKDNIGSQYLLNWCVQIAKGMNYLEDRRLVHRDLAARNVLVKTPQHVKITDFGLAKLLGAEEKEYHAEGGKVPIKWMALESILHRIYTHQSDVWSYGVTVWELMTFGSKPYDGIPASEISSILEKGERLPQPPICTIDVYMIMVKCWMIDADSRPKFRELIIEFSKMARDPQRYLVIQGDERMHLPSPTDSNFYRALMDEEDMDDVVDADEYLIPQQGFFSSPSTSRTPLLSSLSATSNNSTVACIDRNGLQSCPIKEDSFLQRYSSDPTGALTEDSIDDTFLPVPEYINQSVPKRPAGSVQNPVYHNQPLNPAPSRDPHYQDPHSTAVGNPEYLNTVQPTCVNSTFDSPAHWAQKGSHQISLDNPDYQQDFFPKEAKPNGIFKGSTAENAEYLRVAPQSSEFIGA

| Compound | hepatocyte CLint at 1 µM [1] | GI50 (WT EGFR cell line A-431; [8]) | IC50 [2] | hepatocyte CLint at 1 µM [3] | GI50 (Ba/F3 EGFR NPH ins cells; [9]) | GI50 (OCI-LY-10 cells; Homo sapiens, OCI-Ly10, 72 h) | IC50 (WT EGFR) | IC50 (EGFR L858R&T790M) | IC50 [4] | GI50 [5, 10] | IC50 [7] | GI50 (Ba/F3 EGFR ASV ins cells; [11]) | GI50 (DB cells) | GI50 [6] | GI50 (Ri-1 cells; Ri-1, 72 h) | GI50 (TMD-8 cells; Homo sapiens, TMD8, 72 h) | also measured |
| --- | --- | --- | --- | --- | --- | --- | --- | --- | --- | --- | --- | --- | --- | --- | --- | --- | --- |
| C=CC(=O)Nc1cc(Nc2nccc(Nc3cc(Cl)c(F)cc3C(C)(O)CC)n2)c(OC)cc1N1CC[C@@H](N(C)C)C1 (single isomer, unassigned) [Compound 76, N-(5-(4-(5-chloro-4-fluoro-2-((R)-2-hydroxybutan-2-yl)phenylamino)pyrimidin-2-ylamino)-2-((R)-3-(dimethylamino)pyrrolidin-1-yl)-4-methoxyphenyl) acrylamide or N-(5-(4-(5-chloro-4-fluoro-2-((S)-2-hydroxybutan-2-yl)phenylamino)pyrimidin-2-ylamino)-2-((R)-3-(dimethylamino)pyrrolidin-l-yl)-4-methoxyphenyl) acrylamide] | 13.9 µL/min/1e6 cells | 38.3 nM | 11.6 nM | 4.01 µL/min/1e6 cells | 85.9 nM |  | 596 nM | 1.8 nM | 103 nM | 5.4 nM | 27.9 nM | 113 nM | 1070 nM | 97.7 nM |  |  | GI50 (OCI-LY-10 cells): 2.93 nM; GI50 (Ri-1 cells): 5.93 nM; GI50 (TMD-8 cells): 8.44 nM |
| C=CC(=O)Nc1cc(Nc2nccc(Nc3cc(Cl)c(F)cc3C(C)(C)O)n2)c(OC)cc1N(C)CCN(C)C [Compound 36, (N-(5-(4-(5-chloro-4-fluoro-2-(2-hydroxypropan-2-yl)phenylamino)pyrimidin-2-ylamino)-2-((2-(dimethylamino)ethyl)(methyl)amino)-4-methoxyphenyl)acrylamide)] | > 300 µL/min/1e6 cells | 41.6 nM | 5.3 nM | 10.3 µL/min/1e6 cells | 42.7 nM | 6.41 nM |  |  |  | 1.6 nM |  | 37.8 nM | 881 nM | 75.2 nM | 8.2 nM | 8.32 nM |  |
| C=CC(=O)Nc1cc(Nc2nccc(Nc3cc(Cl)c(F)cc3C(C)(C)O)n2)c(OC)cc1N1C[C@@H]2CN(C)[C@@H]2C1 [Compound 97, N-(5-(4-(5-chloro-4-fluoro-2-(2-hydroxypropan-2-yl)phenylamino)pyrimidin-2-ylamino)-4-methoxy-2-((1 S,5 S)-6-methyl-3,6-diazabicyclo[3.2.0]heptan-3-yl)phenyl)acrylamide formic acid salt] |  |  | 2.8 nM | 4.25 µL/min/1e6 cells |  | 24 nM | 160 nM | 0.7 nM | 14.4 nM |  | 17.4 nM |  | > 3000 nM | 93.9 nM | 54.7 nM | 18.6 nM | GI50 (WT EGFR cell line A-431; read-out: EGFR WT A431 GI50 (nM)): 38 nM; GI50 (Ba/F3 EGFR NPH ins cells; read-out: EGFR Exon20 NPH insertion GI50 (nM)): 74.2 nM; GI50 ([5]; read-out: EGFR L858R and T790M mutation GI50 (nM)): 3.4 nM; GI50 (Ba/F3 EGFR ASV ins cells; read-out: EGFR Exon20 ASV insertion GI50 (nM)): 86.7 nM |

Second part, led by results:

| hepatocyte CLint at 1 µM [1] | GI50 (WT EGFR cell line A-431; [8]) | IC50 [2] | hepatocyte CLint at 1 µM [3] | GI50 (Ba/F3 EGFR NPH ins cells; [9]) | GI50 (OCI-LY-10 cells; Homo sapiens, OCI-Ly10, 72 h) | IC50 (WT EGFR) | IC50 (EGFR L858R&T790M) | IC50 [4] | GI50 [5, 10] | IC50 [7] | GI50 (Ba/F3 EGFR ASV ins cells; [11]) | Compound | GI50 (DB cells) | GI50 [6] | GI50 (Ri-1 cells; Ri-1, 72 h) | GI50 (TMD-8 cells; Homo sapiens, TMD8, 72 h) | also measured |
| --- | --- | --- | --- | --- | --- | --- | --- | --- | --- | --- | --- | --- | --- | --- | --- | --- | --- |
| 13.2 µL/min/1e6 cells | 17.8 nM | 2.1 nM | 1.42 µL/min/1e6 cells | 50 nM | 7.04 nM | 50.4 nM | 0.4 nM | 7.1 nM | 0.8 nM | 13.5 nM | 55.6 nM | C=CC(=O)Nc1cc(Nc2nccc(Nc3cc(Cl)c(F)cc3C(C)(C)O)n2)c(OC)cc1N1C[C@@H]2CN(C)C[C@@H]21 [Compound 96, N-(5-(4-(5-chloro-4-fluoro-2-(2-hydroxypropan-2-yl)phenylamino)pyrimidin-2-ylamino)-4-methoxy-2-((1S,5R)-3-methyl-3,6-diazabicyclo[3.2.0]heptan-6-yl)phenyl)acrylamide] | 2990 nM | 50 nM | 25.1 nM | 2.8 nM |  |
| 78.4 µL/min/1e6 cells | 12 nM | 5.5 nM | 9.78 µL/min/1e6 cells | 26.5 nM |  | 12.2 nM | 0.4 nM | 8.7 nM | 2.7 nM | 11.2 nM | 26.5 nM | [2H]C([2H])([2H])N(CCN(C)c1cc(OC)c(Nc2ncnc(Nc3cc(F)c(F)cc3C(C)(C)O)n2)cc1NC(=O)C=C)C([2H])([2H])[2H] [Compound 22, N-(2-((2-(bis(methyl-d3)amino)ethyl)(methyl)amino)-5-((4-((4,5-difluoro-2-(2-hydroxypropan-2-yl)phenyl)amino)-1,3,5-triazin-2-yl)amino)-4-methoxyphenyl) acrylamide] |  | 44.4 nM |  |  |  |
| 161 µL/min/1e6 cells | 13 nM | 3 nM | 7.12 µL/min/1e6 cells | 21.6 nM | 2.8 nM | 7.6 nM | 0.3 nM | 6.9 nM | 7.7 nM | 9.7 nM | 25.2 nM | C=CC(=O)Nc1cc(Nc2ncnc(Nc3cc(Cl)c(F)cc3C(C)(C)O)n2)c(OC)cc1N(C)CCN(C)C [Compound 11, N-(5-(4-(5-chloro-4-fluoro-2-(2-hydroxypropan-2-yl)phenylamino)-1,3,5-triazin-2-ylamino)-2-((2-(dimethylamino)ethyl)(methyl)amino)-4-methoxyphenyl)acrylamide] | 2800 nM | 20.7 nM | 26 nM | 10.9 nM |  |
